This is an account of results in patent publication US4539037A, “Urease inhibited urea based fertilizer compositions containing N-aryl-N-aliphatic phosphorotriamide compounds” (Allied Corporation, priority 1983, dated 1985).

The test system of assay [1] is soil urease. Description: Soil urease inhibition test (urea remaining after incubation in Cazenovia sandy loam, 25° C., 3 days). It is filed as biochemical. The following applies: for % Inhibition 20 μmg: 20 micrograms test compound per 20 g soil. Here is the method: The inhibition tests were run in a New York soil (Cazenovia sandy loam, pH 7.2). […] The bottle was capped with perforated aluminum foil and incubated at 25° C. for 3 days prior to extraction with 100 mL 2M KCl containing 0.5 mg phenylmercuric acetate. The extracts were then analyzed for remaining urea using an auto analyzer. Percent inhibition was calculated as
% Inhibition=[-1(A-B/A-C)]×100
where A is urea recovered from unincubated sample (urea added to soil and immediately extracted); B is urea recovered from inhibited sample; and C is urea recovered from the control (uninhibited sample).

In assay [2] the test system is soil urease. The note with it: stated for a known compound; cited from earlier work.
Assay [3] relates to soil urease. Description: Urea hydrolyzed vs. time in soil at elevated temperature (35° C.). The format is biochemical. The following applies: soil at 35° C., 10 micrograms of urease inhibitor per gram of soil; for urease inhibiting effect at 35° C. (FIGURE, in words): sampled every two days, period of 12 days. As for the experimental part:
FIG. 1 is a graph of urea hydrolyzed vs. time at 35° C. using 10 micrograms of urease inhibitor per gram of soil.
Several representative N-alkyl-N-aryl phosphoric triamide compounds useful in the practice of this invention were tested to determine their relative effectiveness or urease inhibitors. The inhibition tests were run in a New York soil (Cazenovia sandy loam, pH 7.2). Evaluations (run in triplicate) consisted of applying 800 and 20 micrograms of test compound in 5 mL water and 42.8 mg urea in 1 mL water to 20 g air-dry soil in a glass bottle. The bottle was capped with perforated aluminum foil and incubated at 25° C. for 3 days prior to extraction with 100 mL 2M KCl containing 0.5 mg phenylmercuric acetate. The extracts were then analyzed for remaining urea using an auto analyzer. Percent inhibition was calculated as
Employing the procedure of EXAMPLES VII to IX a series of test were conducted to show improved efficiency of N-aliphatic-N-arylphosphoric triamides at elevated temperature as compared to the efficiency of phenylphosphorodiamidate, a prior art urease inhibitor. This test was conducted similarly to the test previously described, but soil samples were taken every two days and analyzed for urea content.

Setting [4] is: Table II, procedure of Examples VII to IX.
[5] abbreviates: Table II, procedure of Examples VII to IX, 800 micrograms test compound per 20 g soil.

On to `NP(N)(=O)Nc1ccccc1` [Comp II], for which, in the assay with soil urease [1] (setting [4]), the “% Inhibition 20 μmg” value worked out at 19%. In the assay on soil urease [1] (setting [5]), the “% Inhibition 800 μmg” value stood at 74%. With `NP(N)(=O)Nc1ccc([N+](=O)[O-])cc1` [Comp I], in the assay on soil urease [1] (setting [4]), the “% Inhibition 20 μmg” value worked out at 30%. For the same compound, the “% Inhibition 800 μmg” value in the assay on soil urease [1] (setting [5]) is 81%. As to `COc1ccc(N(C)P(N)(N)=O)cc1` [VIII], in the assay with soil urease [1] (Table I, 800 micrograms test compound + 42.8 mg urea per 20 g air-dry soil (pH 7.2), triplicate), the “% Inhibition 800 μmg” value came to 47%. Take `NP(N)(=O)Oc1ccccc1` [phenyl phosphorodiamidate]: the “urease inhibiting effect at 25° C. (in words)” value in the assay on soil urease [2] was “excellent urease inhibiting effect”. Also, in the assay with soil urease [3], the “time to essentially complete urea hydrolysis” value amounted to 6 days and the “urease inhibiting effect at 35° C. (FIGURE, in words)” value is “much less effective”. For “N-Methyl-N-(4-nitrophenyl) Phosphoric Triamide [IX]”, the “urease inhibiting effect at 35° C. (FIGURE, in words)” value in the assay with soil urease [3] is recorded as “excellent inhibitor”.
